Assay results reported in article PMC6821791, “Phase I Trial of Pyragrel, a Novel Thromboxane Synthetase Inhibitor, to Evaluate the Safety, Tolerability, and Pharmacokinetics in Healthy Volunteers” (Frontiers in Pharmacology, 2019).
“And” between values parts separate entries of the source, which are not always exact repeats. Identical values can stand only once.

Key:
[1] = Safety assessment, adverse event monitoring (Parts I-V); assay type: in vivo, human
Procedure: Safety was assessed using subject interviews and adverse event (AE) monitoring. All subjects received laboratory examinations after termination of drug infusion for 48 or 72 h; the examination items are the same as those listed in the screening process. If clinical abnormalities were present, further follow-ups were required until the laboratory test values or vital sign levels of the abnormal items returned to normal values or stable levels. The clinical significance of abnormal laboratory test values was determined by the physicians.
(§1) The vital signs were analyzed by repeated measures analysis of variance (ANOVA), and laboratory indexes were analyzed by the paired t-test and one-way ANOVA. Comparison within different dose regimens of pyragrel or among different treatments (pyragrel, ozagrel, and placebo) or production of urinary 11-D-HTXB2 among groups was performed with the t-test, and expected values were considered along with the actual situation. Descriptive methods were used to compare the incidence of AE between pyragrel and ozagrel/placebo or in different pyragrel dose regimens; the normal/abnormal changes in laboratory examinations before and after administration were described.

[2] = tested on: human umbilical vein endothelial cells (HUVEC); conditions: in vitro; cited from earlier work
[3] = tested on: plasma TXB2 and 6-keto-PG1α; test: Plasma TXB2 and 6-keto-PG1α by ELISA (Part IV); assay type: in vivo, human; conditions: pyragrel 60, 120, 240 mg single i.v. dose; data not shown
Procedure: (§2) Urinary levels of 11-D-HTXB2, the degree of platelet agglutination inhibition (DPAI), and the plasma levels of TXB2 and 6-keto-PG1α are considered effective indicators to confirm the antithrombotic effect of a drug candidate ([Uyama et al., 1985]; [Morio et al., 1993]). Therefore, we determined the inhibitory effect of pyragrel on all these three markers in Part IV after a single 3 h infusion dose of pyragrel (60, 120, or 240 mg). […] Similarly, the plasma levels of TXB2 and 6-keto-PG1α (stable metabolites of TXA2 and PGI2, respectively) were determined by ELISA since the decreased TXB2/6-keto- PG1α ratio indicates platelet aggregation and thrombosis inhibition ([Mizugaki et al., 1999]). […] Actually, levels of plasma TXB2 and 6-keto-PG1α are different between patients with cerebral ischemic and healthy subjects; with the limitation of small size for pharmacodynamic activity evaluation in the study, plus the significant reduction in urinary 11-D-HTXB2 level here, we recommended that a larger sample size, extensive phase II study should be performed in patients to further study the pharmacodynamic characteristic of pyragrel.

[4] = tested on: platelet agglutination inducted by adenosine diphosphate (ADP) and arachidonic acid (AA); test: Platelet agglutination inducted by ADP and AA (Part IV); assay type: in vivo, human; conditions: single 3 h infusion of pyragrel 60, 120 or 240 mg, data not shown
Procedure: as §2

[5] = tested on: urinary 11-D-HTXB2 (indicator of TXA2 production); test: Urinary 11-D-HTXB2 production by ELISA (Part IV); assay type: in vivo, human; conditions: for Urinary 11-D-HTXB2 (standardized by urine creatinine): Part IV
Procedure: […] […] Production of 11-dehydro-thrombxane B2 (11-D-HTXB2) in urine sample was detected by ELISA method.
as §1
Given that 11-dehydrothromboxane B2 (11-D-HTXB2) is considered a reliable indicator of TXA2 production in humans and several animal models ([Morio et al., 1993]; [Yamanaka et al., 1993]), we preliminarily measured the production of urinary 11-D-HTXB2 as a maker for evaluating the TXA2 inhibition activity of pyragrel in three dose groups (60, 120, or 240 mg) in Part IV. […] ( Table 9 ).

[6] = Part II, pyragrel 240 mg in 250 ml saline
[7] = Part III, multiple doses of pyragrel 180 mg
[8] = Part IV, pyragrel 60, 120, 240 mg crossover
[9] = Part V, pyragrel 360 mg in 24 h

## COc1cc(C=CC(=O)[O-])ccc1OCc1nc(C)c(C)nc1C.[Na+] [Pyragrel, sodium pyragrel]
[1]; Part I, 36 pyragrel-treated subjects, 8 subjects of ozagrel treatment
  AE incidence rate (IR): 33.3%
[1]; Part I, pyragrel 30 mg
  AE Type: DB elevation, palpitation
  Number of AEs: 2
[1]; Part I, pyragrel 60 mg
  AE Type: Leucocytes increase, positive urine protein
  Number of AEs: 2
[1]; Part I, pyragrel 120 mg
  AE Type: DB elevation
  Number of AEs: 1
[1]; Part I, pyragrel 180 mg
  AE Type: DB elevation (2), ventosity
  Number of AEs: 3
[1]; Part I, pyragrel 240 mg
  AE Type: APTT extension
  Number of AEs: 2
[1]; Part I, pyragrel 300 mg
  AE Type: Lower hemoglobin, total bile acid increase
  Number of AEs: 2
[1]; [6]
  AE Type: DB/TB elevation
  Number of AEs: 2
[1]; Part II, pyragrel 240 mg in 250 ml saline, 2/4
  AE incidence rate (IR): 50%
[1]; [7]
  AE Type: DB/TB elevation, alanine aminotransferase elevated, abdominal pain, headache, low blood potassium, urine frequency, fecal OBT+.
  Number of AEs: 12
[1]; [8]
  AE Type: Dizziness, TB/DB elevation, transient left tinnitus, double upper arm papules, fatigue
  Number of AEs: 8
[1]; Part V, continuous infusion, 1/4
  AE incidence: 25.0%
[1]; [9]
  AE Type: DB elevation
  Number of AEs: 1
[1]; Parts I-V
  Severe AEs, in words: No severe AEs occurred
[1]; Total, Parts I-V
  Number of AEs: 35
[1]; all parts, 12/68 subjects of pyragrel, 2/8 subjects of ozagrel
  Incidence of elevation in conjugated bilirubin (DB elevation): 17.6%
[1]; single i.v. infusion up to 300 mg, multiple dose 180 mg, prolonged infusion 360 mg within 24 h
  Tolerability, in words: well tolerated
[2]
  Effect against inflammatory induced HUVEC injury: significant protective effects
[3]
  Plasma 6-keto-PG1α: increase
  Plasma TXB2: decreased
[4]
  Platelet agglutination inducted by ADP and AA: slightly inhibited
[5]; 120- and 240-mg group, P<0.05 vs preadministration
  Duration of the inhibitory effect on 11-D-HTXB2 production: at least 12 h
[5]; 60 mg/kg group, 0–3 h after administration
  Urinary 11-D-HTXB2 (standardized by urine creatinine): 37.83 ± 4.85 pg/mL
[5]; 60 mg/kg group, 3–4 h after administration
  Urinary 11-D-HTXB2 (standardized by urine creatinine): 36.64 ± 4.15 pg/mL
[5]; 60 mg/kg group, 4–8 h after administration
  Urinary 11-D-HTXB2 (standardized by urine creatinine): 35.05 ± 4.51 pg/mL
[5]; 60 mg/kg group, 8–12 h after administration, 60 mg/kg
  Urinary 11-D-HTXB2 (standardized by urine creatinine): 34.77 pg/mL and 34.77 ± 4.16 pg/mL
[5]; 60 mg/kg group, 12–24 h after administration, 60 mg/kg
  Urinary 11-D-HTXB2 (standardized by urine creatinine): 35.17 pg/mL and 35.17 ± 4.63 pg/mL
[5]; 120 mg/kg group, 0–3 h after administration
  Urinary 11-D-HTXB2 (standardized by urine creatinine): 37.06 ± 5.00 pg/mL
[5]; 120 mg/kg group, 3–4 h after administration
  Urinary 11-D-HTXB2 (standardized by urine creatinine): 35.85 ± 4.40 pg/mL
[5]; 120 mg/kg group, 4–8 h after administration
  Urinary 11-D-HTXB2 (standardized by urine creatinine): 33.03 ± 5.00 pg/mL
[5]; 120 mg/kg group, 8–12 h after administration
  Urinary 11-D-HTXB2 (standardized by urine creatinine): 31.45 ± 4.88 pg/mL
[5]; 120 mg/kg group, 12–24 h after administration
  Urinary 11-D-HTXB2 (standardized by urine creatinine): 32.14 ± 5.17 pg/mL
[5]; 240 mg group, 0–3 h after administration
  Urinary 11-D-HTXB2 (standardized by urine creatinine): 36.40 ± 4.68 pg/mL
[5]; 240 mg group, 3–4 h after administration
  Urinary 11-D-HTXB2 (standardized by urine creatinine): 35.37 ± 4.60 pg/mL
[5]; 240 mg group, 4–8 h after administration
  Urinary 11-D-HTXB2 (standardized by urine creatinine): 33.10 ± 4.31 pg/mL
[5]; 240 mg group, 8–12 h after administration, 240 mg/kg
  Urinary 11-D-HTXB2 (standardized by urine creatinine): 30.72 pg/mL and 30.72 ± 4.38 pg/mL
[5]; 240 mg group, 12–24 h after administration, 240 mg/kg
  Urinary 11-D-HTXB2 (standardized by urine creatinine): 31.37 pg/mL and 31.37 ± 3.79 pg/mL
[5]; single infusion of pyragrel 60, 120 or 240 mg
  Production of urinary 11-D-HTXB2, effect in words: time- and dose-dependently inhibited
